Data as given in patent publication US20120277209A1, “PYRAZINE COMPOUNDS AS PHOSPHODIESTERASE 10 INHIBITORS” (Amgen Inc., priority 2009, published 2012).

These compounds were tested against PDE10 (UniProt Q9Y233) (assay: PDE10 enzyme inhibition, IMAP TR-FRET assay (MPDE10A7 Enzyme Activity and Inhibition)). Details: IC50 class against PDE10; read-out: IC50.
Type: biochemical
Summary of the method: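 IMAP TR-FRET read-out of PDE10 hydrolysis of fluorescein-cAMP or -cGMP (60 min, room temperature), after a 30 min compound-enzyme preincubation. Enzyme source was PDE10A or tissue homogenate. Averaged IC50s are reported as five range classes.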

COc1cccc(-c2nccnc2Oc2ccc(Nc3nc4ccccc4s3)cc2)c1 [Example 150, N-(4-(3-(3-methoxyphenyl)pyrazin-2-yloxy)phenyl)benzo[d]thiazol-2-amine] and COc1cncc(-c2nccnc2Oc2ccc(Nc3nc4ccccc4s3)cc2)c1 [Example 156, N-(4-(3-(5-methoxypyridin-3-yl)pyrazin-2-yloxy)phenyl)benzo[d]thiazol-2-amine] fall in the same range of IC50: 0.025 to 0.1 µM for the first, 0.025 to 0.1 µM for the second.

COC1CC=C(c2nccnc2Oc2ccc(C(=O)c3nc4ccccc4[nH]3)cc2)CC1 (stereo not shown) [Example 187, 1H-Benzimidazol-2-yl(4-((3-(4-methoxy-1-cyclohexen-1-yl)-2-pyrazinyl)oxy)phenyl)methanone] and O=C(c1ccc(Oc2nccnc2C2=CCC(F)(F)CC2)cc1)c1nc2ccccc2[nH]1 [Example 199, (1H-benzo[d]imidazol-2-yl)(4-(3-(4,4-difluorocyclohex-1-enyl)pyrazin-2-yloxy)phenyl)methanone] cannot be ordered by IC50: < 0.025 µM for the first, < 0.025 µM for the second.

First: CC1CN(c2nccnc2Oc2ccc(Nc3nc4ccccc4s3)cc2)CC(C)O1 (stereo not shown) [Example 74, N-(4-(3-(2,6-dimethylmorph-olino)pyrazin-2-yloxy)phenyl)-benzo[d]thiazol-2-amine]
Second: O=C1CN(c2nccnc2Oc2ccc(Nc3nc4ccccc4s3)cc2)CCN1 [Example 90, 4-(3-(4-(benzo[d]thiazol-2-yl-amino)phenoxy)pyrazin-2-yl)-piperazin-2-one]
The IC50 of the first is higher: 0.025 to 0.1 µM for the first, < 0.025 µM for the second.

O=C(c1ccc(Oc2nccnc2-c2ccnc3ccccc23)cc1)c1nc2ccccc2[nH]1 [Example 129, (1H-benzo[d]imidazol-2-yl)(4-(3-(quinolin-4-yl)pyrazin-2-yloxy)phenyl)methanone] and COc1ccncc1-c1nccnc1Oc1ccc(C(=O)c2nc3ccccc3[nH]2)cc1 [Example 112, (1H-benzo[d]imidazol-2-yl)(4-(3-(4-methoxypyridin-3-yl)pyrazin-2-yloxy)phenyl)methanone] fall in the same range of IC50: 0.025 to 0.1 µM for the first, 0.025 to 0.1 µM for the second.

First: Fc1cccc2nc(Nc3ccc(Oc4nccnc4Cl)cc3)sc12 [Example 100, N-(4-(3-chloropyrazin-2-yloxy)-phenyl)-7-fluorobenzo[d]thiazol-2-amine]
Second: Clc1ccc(-c2nccnc2Oc2ccc(Nc3nc4ccccc4s3)cc2)cn1 [Example 145, N-(4-(3-(6-chloropyridin-3-yl)pyrazin-2-yloxy)phenyl)benzo[d]thiazol-2-amine]
The IC50 of the first is higher: 1 to 5 µM for the first, < 0.025 µM for the second.

Compared with CC(C)Oc1nccnc1Oc1ccc(C(=O)c2nc3ccccc3[nH]2)cc1 [Example 161, (1H-benzo[d]imidazol-2-yl)(4-(3-isopropoxypyrazin-2-yloxy)phenyl)methanone], O=C(c1ccc(Oc2nccnc2OCC2CCOC2)cc1)c1nc2ccccc2[nH]1 (stereo not shown) [Example 171, (1H-benzo[d]imidazol-2-yl)(4-(3-((tetrahydrofuran-3-yl)methoxy)pyrazin-2-yloxy)phenyl)methanone] is lower in IC50: 1 to 5 µM for the first, 0.1 to 0.25 µM for the second. The second is the more potent here.

Compared with COc1cnccc1-c1nccnc1Oc1ccc(Nc2nc3ccccc3s2)cc1 [Example 149, N-(4-(3-(3-methoxypyridin-4-yl)pyrazin-2-yloxy)phenyl)benzo[d]thiazol-2-amine], COc1ncccc1-c1nccnc1Oc1ccc(Nc2nc3ccc(F)cc3s2)cc1 [Example 153, 6-fluoro-N-(4-(3-(2-methoxypyridin-3-yl)pyrazin-2-yloxy)phenyl)benzo[d]thiazol-2-amine] is higher in IC50: < 0.025 µM for the first, 0.025 to 0.1 µM for the second. The first is the more potent here.

O=C(c1ccc(Oc2nccnc2C2CCSCC2)cc1)c1nc2ccccc2[nH]1 [Example 222, 1H-BENZO[D]IMIDAZOLE-2-YL(4-(3-(TETRAHYDRO-2H-THIOPYRAN-4-YL)PYRAZIN-2-YLOXY)PHENYL)METHANONE] and O=C(c1ccc(Oc2nccnc2C2CCOCC2)cc1)c1nc2ccccc2[nH]1 [Example 181, (1H-benzo[d]imidazol-2-yl)(4-(3-(tetrahydro-2H-pyran-4-yl)pyrazin-2-yloxy)phenyl)methanone] cannot be ordered by IC50: < 0.025 µM for the first, < 0.025 µM for the second.

Same assay, conditions: PDE10 enzyme inhibition; average IC50 data for each compound; read-out: Average IC50

First: Cc1cc(-c2nccnc2Oc2ccc(Nc3nc4ccccc4s3)cc2)ccn1 [drawing 750]
Second: Cc1cc(-c2nccnc2Oc2ccc(C(=O)c3nc4ccccc4[nH]3)cc2)ccn1 [drawing 726]
The IC50 of the first is 3.1-fold higher: 0.0175 µM for the first, 0.00567 µM for the second.

CN1CCCC1CCOc1nccnc1Oc1ccc(C(=O)c2nc3ccccc3[nH]2)cc1 (stereo not shown) [drawing 858] and O=C(c1ccc(Oc2nccnc2OCC2CC2)cc1)c1nc2ccccc2[nH]1 [drawing 846] are within 1.5-fold of each other in IC50: 0.235 µM for the first, 0.164 µM for the second.

Going from O=C(c1ccc(Oc2nccnc2C2=CCOCC2)cc1)c1nc2ncccc2[nH]1 [drawing 879] to O=C(c1ccc(Oc2nccnc2C2=CCCOC2)cc1)c1nc2ccccc2[nH]1, the IC50 falls from 0.0317 µM to 0.0161 µM (2-fold).

C[C@H](F)C(=O)N1CCC(c2nccnc2Oc2ccc(Nc3nc4ccccc4s3)cc2)CC1 (stereo in doubt) and COC(=O)N1CCC(c2nccnc2Oc2ccc(Nc3nc4ccccc4s3)cc2)CC1 are within 1.5-fold of each other in IC50: 0.000178 µM for the first, 0.000206 µM for the second.

Compared with c1ccc2sc(Nc3ccc(Oc4nccnc4C4CCOCC4)cc3)nc2c1 [drawing 864], c1ccc2sc(Nc3ccc(Oc4nccnc4[C@H]4CCCOC4)cc3)nc2c1 (stereo in doubt) is 4-fold higher in IC50: 0.000606 µM for the first, 0.00243 µM for the second. The first is the more potent here.

First: O=C(c1ccc(Oc2nccnc2Oc2ccccc2)cc1)c1nc2ccccc2[nH]1 [drawing 850]
Second: O=C(c1ccc(Oc2nccnc2-c2cccnc2)cc1)c1nc2ccccc2[nH]1 [drawing 754]
The IC50 of the first is 260-fold higher: 2.12 µM for the first, 0.00805 µM for the second. The second is the more potent here.

Compared with O=C(c1ccc(Oc2nccnc2-c2cccnc2F)cc1)c1nc2ccccc2[nH]1, COc1cncc(-c2nccnc2Oc2ccc(C(=O)c3nc4ccccc4[nH]3)cc2)c1 [drawing 917] is 1.5-fold higher in IC50: 0.00353 µM for the first, 0.00542 µM for the second. The first is the more potent here.

Compared with C[C@@H]1CN(c2nccnc2Oc2ccc(Nc3nc4ccccc4s3)cc2)CC(=O)N1 (racemic), C[C@H]1CN(c2nccnc2Oc2ccc(Nc3nc4ccccc4s3)cc2)CC(=O)N1 [drawing 835] is 3.7-fold higher in IC50: 0.00464 µM for the first, 0.0171 µM for the second.

Going from O[C@@H]1CCC[C@@H](c2nccnc2Oc2ccc(Nc3nc4ccccc4s3)cc2)C1 [drawing 912] to Cn1c(C(=O)c2ccc(Oc3nccnc3C3CCOCC3)cc2)nc2ccccc21 [drawing 874], the IC50 falls from 0.00254 µM to 0.00131 µM (1.9-fold). The second is the more potent here.

Compared with O=C(c1ccc(Oc2nccnc2C(=O)NCCO)cc1)c1nc2ccccc2[nH]1 [drawing 817], Cc1noc([C@@H]2CCN(c3nccnc3Oc3ccc(C(=O)c4nc5ccccc5[nH]4)cc3)C2)n1 (stereo in doubt) is 18-fold lower in IC50: 0.0655 µM for the first, 0.00373 µM for the second.

Same assay, conditions: PDE10 enzyme inhibition; chiral compounds separated from racemic mixtures; read-out: IC50

O=C1CCC[C@@H](c2nccnc2Oc2ccc(Nc3nc4ccccc4s3)cc2)C1 [Example 281, (R)-3-(3-(4-(benzo[d]thiazol-2-ylamino)phenoxy)pyrazin-2-yl)cyclohexanone] and O[C@H]1CCC[C@H](c2nccnc2Oc2ccc(Nc3nc4ccccc4s3)cc2)C1 [Example 275, (1S,3S)-3-(3-(4-(benzo[d]thiazol-2-ylamino)phenoxy)pyrazin-2-yl)cyclohexanol] cannot be ordered by IC50: < 0.025 µM for the first, < 0.025 µM for the second.

CCOC(=O)[C@H]1CCCN(c2nccnc2Oc2ccc(C(=O)c3nc4ccccc4[nH]3)cc2)C1 [Example 264, (S)-ethyl 1-(3-(4-(1H-benzo[d]imidazole-2-carbonyl)phenoxy)pyrazin-2-yl)piperidine-3-carboxylate] and C[C@H]1CN(c2nccnc2Oc2ccc(Nc3nc4ccccc4s3)cc2)CC(=O)N1 [Example 268, (S)-4-(3-(4-(benzo[d]thiazol-2-ylamino)phenoxy)pyrazin-2-yl)-6-methylpiperazin-2-one] cannot be ordered by IC50: < 0.025 µM for the first, < 0.025 µM for the second.
